Source: patent US20060128695A1, “Cyclic nucleotide phosphodiesterase inhibitors, preparation and uses” (NEURO3D, priority 2002, published 2006)

Each compound was assayed against T1, PDE2 (Bos taurus, UniProt P14099) (assay: Inhibition of PDE2, radioenzymatic phosphodiesterase assay). Conditions: not given.
T1 construct: PDE2 was prepared from bovine endothelial cells by the same methods; endogenous in cells; host or cells: bovine endothelial cells
T1 sequence (P14099 1-921): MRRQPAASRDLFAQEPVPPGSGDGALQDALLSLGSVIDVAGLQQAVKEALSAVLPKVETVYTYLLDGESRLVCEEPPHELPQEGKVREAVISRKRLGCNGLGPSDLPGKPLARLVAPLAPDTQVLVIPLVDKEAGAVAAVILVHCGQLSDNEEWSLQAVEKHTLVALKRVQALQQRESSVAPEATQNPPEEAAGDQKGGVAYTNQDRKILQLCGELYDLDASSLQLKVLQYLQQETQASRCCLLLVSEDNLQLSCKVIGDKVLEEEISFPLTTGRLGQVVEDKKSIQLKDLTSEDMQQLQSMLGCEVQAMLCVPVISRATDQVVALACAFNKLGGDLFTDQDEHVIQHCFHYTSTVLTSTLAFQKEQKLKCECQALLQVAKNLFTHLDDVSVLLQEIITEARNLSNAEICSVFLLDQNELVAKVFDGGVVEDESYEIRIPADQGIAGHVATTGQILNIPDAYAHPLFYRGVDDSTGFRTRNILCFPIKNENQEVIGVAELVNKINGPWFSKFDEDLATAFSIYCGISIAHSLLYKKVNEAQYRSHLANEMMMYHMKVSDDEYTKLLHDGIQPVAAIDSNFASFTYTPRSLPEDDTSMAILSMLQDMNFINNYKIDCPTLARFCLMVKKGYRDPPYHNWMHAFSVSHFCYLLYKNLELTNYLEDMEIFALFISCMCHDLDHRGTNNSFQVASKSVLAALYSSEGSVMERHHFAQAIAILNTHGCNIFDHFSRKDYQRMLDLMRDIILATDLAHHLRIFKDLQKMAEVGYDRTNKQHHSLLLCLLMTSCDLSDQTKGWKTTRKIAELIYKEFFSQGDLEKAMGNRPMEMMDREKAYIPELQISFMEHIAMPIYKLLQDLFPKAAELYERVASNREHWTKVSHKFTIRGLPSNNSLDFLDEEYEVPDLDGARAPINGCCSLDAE
Format: biochemical, bovine
Compound `COc1cc2c(cc1OC)N(C)C(=O)CN=C2c1cccc(CCCCCC(N)=O)c1` [Compound 6i, 6-[3-(7,8-dimethoxy-1-methyl-2-oxo-2,3-dihydro-1H-1,4-benzodiazepin-5-yl)phenyl]hexanamide] has an IC50 of 5.6 µM.
For `COc1cc2c(cc1OC)N(C)C(=O)CN=C2c1ccc(Cl)c(Cl)c1` [Compound 17j, 5-(3,4-dichlorophenyl)-7,8-dimethoxy-1-methyl-1,3-dihydro-1,4-benzodiazepin-2-one], the IC50 was 7 µM.
Compound `COc1cc2c(cc1OC)N(C)C(=O)C(C)N=C2c1cccc(C(N)=O)c1` (stereo not drawn) [Compound 5j, 3-(7,8-dimethoxy-1,3-dimethyl-2-oxo-2,3-dihydro-1H-1,4-benzodiazepin-5-yl) benzamide] has an IC50 of 4.5 µM.
`COc1cc2c(cc1OC)N(C)C(=O)CN=C2c1cccc(C#CCNC(=O)OC(C)(C)C)c1` [Compound 6a, Tert-butyl-3-[3-(7,8-dimethoxy-1-methyl-2-oxo-2,3-dihydro-1H-1,4-benzodiazepin-5-yl)phenyl]propynylcarbamate] was tested, and the IC50 was 8.4 µM.
`CCCN1C(=O)CN=C(c2cccc(C(N)=O)c2)c2cc(OC)c(OC)cc21` [Compound 5f, 3-(7,8-dimethoxy-1-propyl-2-oxo-2,3-dihydro-1H-1,4-benzodiazepin-5-yl)benzamide] gave an IC50 of 12.6 µM.
Compound `COc1cc2c(cc1OC)N(C)C(=O)CN=C2c1ccc2c(c1)OCO2` [Compound 17o, 7,8-dimethoxy-1-methyl-5-(3,4-methylenedioxyphenyl)-1,3-dihydro-2H-1,4-benzodiazepin-2-one] has an IC50 of 7.8 µM.
Compound `COc1cc2c(c(Br)c1OC)C(c1cccc(C#N)c1)=NCC(=O)N2C` [Compound 24b, 3-(6-bromo-7,8-dimethoxy-1-methyl-2-oxo-2,3-dihydro-1H-1,4-benzodiazepin-5-yl)benzonitrile] has an IC50 of 3.3 µM.
In the case of `COC(=O)c1cccc(C2=NCC(=O)N(C)c3cc(OC)c(OC)cc32)c1` [Compound 34a, 3-(7,8-dimethoxy-1-methyl-2-oxo-2,3-dihydro-1H-1,4-benzodiazepin-5-yl)methyl benzoate], the IC50 is reported as 2.6 µM.
For `COc1cc2c(cc1OC)N(C)C(=O)C(Cc1ccc(Cl)c(Cl)c1)N=C2c1cccc(C#N)c1` (stereo not drawn) [Compound 7b, 3-[3-(3,4-dichlorobenzyl)-7,8-dimethoxy-1-methyl-2-oxo-2,3-dihydro-1H-1,4-benzodiazepin-5-yl]benzonitrile], the IC50 was 5.5 µM.
Compound `CCCCCCc1cccc(C2=NCC(=O)N(C)c3cc(OC)c(OC)cc32)c1` [Compound 6e, 7,8-dimethoxy-5-(3′-hexylphenyl)-1-N-methyl-1,3-dihydro-2H-1,4-benzodiazepin-2-one] has an IC50 of 0.36 µM.
`COc1ccc2c(c1)N(C)C(=O)CN=C2c1cccc(C(N)=O)c1` [Compound 5l, 3-(8-methoxy-1-methyl-2-oxo-2,3-dihydro-1H-1,4-benzodiazepin-5-yl)benzamide] gave an IC50 of 14 µM.
In the case of `CCCCC#Cc1cccc(C2=NCC(=O)N(C)c3cc(OC)c(OC)cc32)c1` [Compound 6b, 7,8-dimethoxy-5-(3′-hex-1-ynylphenyl)-1-N-methyl-1,3-dihydro-2H-1,4-benzodiazepin-2-one], the IC50 is reported as 1.06 µM.
`COc1cc2c(cc1OC)N(C)C(=O)CN=C2c1cccc(CN)c1` [Compound 8a, 5-[3-(aminomethyl)phenyl]-7,8-dimethoxy-1-methyl-1,3-dihydro-2H-1,4-benzodiazepin-2-one] gave an IC50 of 9 µM.
Work on `COc1cc2c(cc1OC)N(C)C(=O)CN=C2c1cccc(C(=O)NCCCc2ccccc2)c1` [Compound 36f, 3-(7,8-dimethoxy-1-methyl-2-oxo-2,3-dihydro-1H-1,4-benzodiazepin-5-yl)-N-(3-phenylpropyl)benzamide] yielded an IC50 of 2.8 µM.
Work on `COc1cc2c(cc1OC)N(C)C(=O)CN=C2c1cccc(C#N)c1` [Compound 4a, 3-(7,8-dimethoxy-1-methyl-2-oxo-2,3-dihydro-1H-1,4-benzodiazepin-5-yl)-benzonitrile] yielded an IC50 of 6.7 µM.
`CCN1C(=O)CN=C(c2cccc(C(N)=O)c2)c2cc(OC)c(OC)cc21` [Compound 5g, 3-(1-ethyl-7,8-dimethoxy-2-oxo-2,3-dihydro-1H-1,4-benzodiazepin-5-yl)benzamide] showed an IC50 of 24.6 µM.

Same assay, conditions: 1 μM cyclic AMP; PDE2 from bovine endothelial cells; read-out: PDE2 IC50
With “Tert-butyl-3-[5-(cyanophenyl)-(7,8-dimethoxy-1-methyl-2-oxo-2,3-dihydro-1H-1,4-benzodiazepin-9-yl)phenyl]prop-2-ynylcarbamate [Compound 25c]” the IC50 was 3.4 µM.

Same assay, conditions: 10 μM test compound; PDE2 from bovine endothelial cells; read-out: PDE2 percentage inhibition at 10 μM
`COc1cc2c(cc1OC)N(C)C(=O)CN=C2c1cccc(CNC(C)=O)c1` [Compound 8b, N-[3-(7,8-dimethoxy-1-methyl-2-oxo-2,3-dihydro-1H-1,4-benzodiazepin-5-yl)benzyl]acetamide] was tested, and the inhibition at 10 µM was 27.2%.
`COc1cc2c(cc1OC)-n1ccnc1CN=C2c1cccc(C(N)=O)c1` [Compound 11b, 3-(8,9-dimethoxy-4H-imidazo[1,2-a] [1,4]benzodiazepin-6-yl)benzamide] showed an inhibition at 10 µM of 69.3%.
In the case of `COc1cc2c(cc1OC)N(C)C(=O)CN=C2c1cccc(C(=O)O)c1` [Compound 35a, 3-(7,8-dimethoxy-1-methyl-2-oxo-2,3-dihydro-1H-1,4-benzodiazepin-5-yl)benzoic acid], the inhibition at 10 µM is reported as 26%.
`COc1cc2c(c(Br)c1OC)N(C)C(=O)CN=C2c1cccc(C(N)=O)c1` [Compound 5d, 3-(9-bromo-7,8-dimethoxy-1-methyl-2-oxo-2,3-dihydro-1H-1,4-benzodiazepin-5-yl)benzamide] gave an inhibition at 10 µM of 19.2%.

Same assay, conditions: read-out: PDE2 percentage inhibition at 10 μM
With `COc1cc2c(cc1OC)N(C)C(=O)CN=C2c1cccc(-c2cccc(C(N)=O)c2)c1` [Compound 6o, 3′-(7,8-dimethoxy-1-methyl-2-oxo-2,3-dihydro-1H-1,4-benzodiazepin-5-yl)-1,1′-biphenyl-3-carboxamide] the inhibition at 10 µM was 79.3%.
Compound `COc1cc2c(c(-c3ccccc3)c1OC)N(C)C(=O)CN=C2c1cccc(C(N)=O)c1` [Compound 5m, 3-(7,8-dimethoxy-1-methyl-2-oxo-9-phenyl-2,3-dihydro-1H-1,4-benzodiazepin-5-yl)benzamide] has an inhibition at 10 µM of 5.9%.
`COc1cc2c(cc1OC)N(Cc1ccccc1)C(=O)CN=C2c1cccc(C(N)=O)c1` [Compound 5h, 3-(1-benzyl-7,8-dimethoxy-2-oxo-2,3-dihydro-1H-1,4-benzodiazepin-5-yl)benzamide] gave an inhibition at 10 µM of 0%.
`COc1cc2c(cc1OC)N(Cc1cccc(C(F)(F)F)c1)C(=O)CN=C2c1cccc(C#N)c1` [Compound 4g, 3-{7,8-dimethoxy-2-oxo-1-[3-(trifluoromethyl)benzyl]-2,3-dihydro-1H-1,4-benzodiazepin-5-yl]-benzonitrile] gave an inhibition at 10 µM of 14.3%.
With `CCN1C(=O)CN=C(c2cccc(C#CCOCc3ccccc3)c2)c2cc(OC)c(OC)cc21` [Compound 6k, 5-{3-[3-(benzyloxy)prop-1-ynyl]phenyl}-1-ethyl-7,8-dimethoxy-1,3-dihydro-2H-1,4-benzodiazepin-2-one] the inhibition at 10 µM was 69.7%.
`COc1cc2c(c(-c3ccccc3)c1OC)N(C)C(=O)CN=C2c1cccc(C#N)c1` [Compound 25a, 3-(7,8-dimethoxy-1-methyl-2-oxo-9-phenyl-2,3-dihydro-1H-1,4-benzodiazepin-5-yl)benzonitrile] gave an inhibition at 10 µM of 0%.
`COc1cc2c(cc1OC)N(CCc1ccccc1)C(=O)CN=C2c1cccc(C#N)c1` [Compound 4j, 3-[7,8-dimethoxy-2-oxo-1-(2-phenylethyl)-2,3-dihydro-1H-1,4-benzodiazepin-5-yl]-benzonitrile] was tested, and the inhibition at 10 µM was 5.6%.
Compound `CCN1C(=O)CN=C(c2cccc(C(F)(F)F)c2)c2cc(OC)c(OC)cc21` [Compound 4q, 7,8-dimethoxy-1-ethyl-5-[3-(trifluoromethyl)phenyl]-1,3-dihydro-2H-1,4-benzodiazepin-2-one] has an inhibition at 10 µM of 32%.
With `COc1cc2c(cc1OC)N(Cc1ccc(Cl)cc1)C(=O)CN=C2c1cccc(C#N)c1` [Compound 4c, 3-[1-(4-chlorobenzyl)-7,8-dimethoxy-2-oxo-2,3-dihydro-1H-1,4-benzodiazepin-5-yl]-benzonitrile] the inhibition at 10 µM was 35.3%.
Work on `COc1ccc2c(c1)C(c1ccccc1)=NCC(=O)N2` [Compound 28e, 7-methoxy-5-phenyl-1,3-dihydro-2H-1,4-benzodiazepin-2-one] yielded an inhibition at 10 µM of 8.8%.
`COc1cc2c(cc1OC)N(Cc1cccc(Cl)c1)C(=O)CN=C2c1cccc(C#N)c1` [Compound 4f, 3-[1-(3-chlorobenzyl)-7,8-dimethoxy-2-oxo-2,3-dihydro-1H-1,4-benzodiazepin-5-yl]-benzonitrile] showed an inhibition at 10 µM of 17.1%.
`COc1cc2c(cc1OC)N(Cc1ccccc1Cl)C(=O)CN=C2c1cccc(C#N)c1` [Compound 4h, 3-[1-(2-chlorobenzyl)-7,8-dimethoxy-2-oxo-2,3-dihydro-1H-1,4-benzodiazepin-5-yl]-benzonitrile] was tested, and the inhibition at 10 µM was 16%.
